Assay [1] deals with Haemonchus contortus. Briefly: In vivo nematode test Haemonchus contortus/sheep. The following applies: experimentally infected sheep; orally and/or intravenously as pure active compound; complete cessation of oviposition (worm eggs in faeces) after treatment. The protocol:
Haemonchus contortus/Sheep
Sheep experimentally infected with Haemonchus contortus were treated after expiry of the prepatency time of the parasite. The active compounds were administered orally and/or intravenously as pure active compound.
(§1) The degree of effectiveness is determined by quantitatively counting the worm eggs excreted with the faeces before and after treatment.
(§2) Complete cessation of oviposition after treatment means that the worms have been expelled or are so damaged that they no longer produce eggs (effective dose).
Active compounds tested and effective doses can be seen from the following tables.

For assay [2], the system named is Trichostrongylus colubriformis. Put plainly: In vivo nematode test Trichostrongylus colubriformis/sheep. The following applies: experimentally infected sheep; orally and/or intravenously as pure active compound; complete cessation of oviposition (worm eggs in faeces) after treatment. The protocol: Trichostrongylus colubriformis/Sheep
Sheep experimentally infected with Trichostrongylus colubriformis were treated after expiry of the prepatency time of the parasite. The active compounds were administered orally and/or intravenously as pure active compound.
as §1, §2
Active compounds tested and effective doses can be seen from the following table.

Turning to `COC(=O)C1CCCCN1C(=O)C(C)OC(=O)C(C)N(C)C(=O)N(C)C(=O)N(C)C` [Example 8, N-methyl-N-trimethylallophanoyl-L-alanyl-D-lactyl-L-homoproline Methyl Ester], the Effective dose in assay [1] came out at 5 mg/kg.

Turning to `COC(=O)C(C)OC(=O)C(C)N(C)C(=O)N(C)C(=O)N(C)C` [Example 2, Methyl N-methyl-N-trimethylallophanoyl-L-alanyl-D-lactate], the Effective dose in assay [2] and in assay [1] was 5 mg/kg each time.

These data come from patent US7772190B2, “Didepsipeptide-based endoparasiticides, new didepsipeptides and process for preparing the same” (Bayer Animal Health GmbH, priority 1995, dated 2010).
